The first assay relates to A549 cells. The assay is described as follows: Inhibition of cell growth in tumor cells (MTT assay). Format: cell-based. The conditions noted are these: Homo sapiens, 72 h compound exposure. The protocol:
Inhibition of cell growth by compounds was measured using MTT assay (Mosmann, T., Journal of Immunological Methods, 1983, 65, 55-63). Tumor cell lines were purchased from ATCC (American Type Culture Collection, Manassas, Va.). All cell lines were maintained in RPMI 1640 (Hyclone) supplemented with 10% fetal bovine serum (FBS, Hyclone), glutamine (2 mM, Hyclone), and antibiotics (penicillin 100 U/mL and streptomycin 50 μg/mL) at 37° C. in a humidified atmosphere of 5% CO2 in air. Taxol (positive control, Sigma) and compounds were dissolved in DMSO (Sigma), and the final concentration of DMSO in the medium was 1%. Tumor cells were plated in 96-well plates at densities from 4000 cells/well of a 96-well plate and allowed to adhere/grow for 24 h. They were then treated with various concentrations of drug for 72 h. 3-(4,5-Dimethylthiazol-2-yl)-2,5-diphenyltetrazolium bromide (MTT, Sigma) was used to determine the number of viable cells at the time of compound addition and the number of cells remaining after 72 h compound exposure. The number of cells remaining after 72 h was compared to the number of viable cells at the time of compound addition by measuring the absorbance at 570 nm, allowing for the calculation of growth inhibition.
All concentrations of compounds were tested in triplicate and controls were averaged over 4 wells. IC50 was calculated by plotting the concentration of compound vs the percentage of inhibition in treated wells using GraphPad Prism 5.
On the technique in general: Tetrazolium assays rely on reduction of a dye to a coloured formazan, in cell work by metabolically active cells.
One may read the IC50 as the concentration that inhibits the measured activity by half. In the case of `CC1=C(O)C(=O)C=C2C1=CC=C1[C@@]2(C)CC[C@@]2(C)[C@@H]3C[C@](C)(CN4CCCC4)CC[C@]3(C)CC[C@]12C` [(6bS,8aS,11R,12aR,12bS,14aR)-3-hydroxy-4,6b,8a,11,12b,14a-hexamethyl-11-(pyrrolidin-1-ylmethyl)-7,8,8a,9,10,11,12,12a,12b,13,14,14a-dodecahydropicen-2(6bH)-one], half-maximal inhibition (IC50) was put at 498 nM.
On the same count and under the same terms, to `CC1=C(O)C(=O)C=C2C1=CC=C1[C@@]2(C)CC[C@@]2(C)[C@@H]3C[C@](C)(CNC(=O)CN(C)C)CC[C@]3(C)CC[C@]12C` [2-(dimethylamino)-N-(((2R,4aS,6aS,12bR,14aS,14bR)-10-hydroxy-2,4a,6a,9,12b,14a-hexamethyl-11-oxo-1,2,3,4,4a,5,6,6a,11,12b,13,14,14a,14b-tetradecahydropicen-2-yl)methyl)acetamide] belongs 159 nM; to `CC1=C(O)C(=O)C=C2C1=CC=C1[C@@]2(C)CC[C@@]2(C)[C@@H]3C[C@](C)(CN4CCOCC4)CC[C@]3(C)CC[C@]12C` [(6bS,8aS,11R,12aR,12bS,14aR)-3-hydroxy-4,6b,8a,11,12b,14a-hexamethyl-11-(morpholinomethyl)-7,8,8a,9,10,11,12,12a,12b,13,14,14a-dodecahydropicen-2(6bH)-one], 523 nM.
Compound `COC(=O)OC[C@]1(C)CC[C@]2(C)CC[C@]3(C)C4=CC=C5C(=CC(=O)C(O)=C5C)[C@]4(C)CC[C@@]3(C)[C@@H]2C1` [((2R,4aS,6aS,12bR,14aS,14bR)-10-hydroxy-2,4-a,6a,9,12b,14a-hexamethyl-11-oxo-1,2,3,4,4a,5,6,6a,11,12b,13,14,14a,14b-tetradecahydropicen-2-yl)methyl methyl carbonate] displayed an IC50 of 393 nM.
As for `CC1=C(O)C(=O)C=C2C1=CC=C1[C@@]2(C)CC[C@@]2(C)[C@@H]3C[C@](C)(CN(C)C)CC[C@]3(C)CC[C@]12C` [(6bS,8aS,11R,12aR,12bS,14aR)-11-((dimethylamino)methyl)-3-hydroxy-4,6b,8a,11,12b,14a-hexamethyl-7,8,8a,9,10,11,12,12a,12b,13,14,14a-dodecahydropicen-2(6bH)-one], inhibition was half-maximal at 285 nM (IC50).
The compound `CC1=C(O)C(=O)C=C2C1=CC=C1[C@@]2(C)CC[C@@]2(C)[C@@H]3C[C@](C)(CN)CC[C@]3(C)CC[C@]12C` [(6bS,8aS,11R,12aR,12bS,14aR)-11-(aminomethyl)-3-hydroxy-4,6b,8a,11,12b,14a-hexamethyl-7,8,8a,9,10,11,12,12a,12b,13,14,14a-dodecahydropicen-2(6bH)-one] displayed an IC50 of 841 nM.
The compound `CC1=C(O)C(=O)C=C2C1=CC=C1[C@@]2(C)CC[C@@]2(C)[C@@H]3C[C@](C)(CNC(=O)N4CCOCC4)CC[C@]3(C)CC[C@]12C` [N-(((2R,4aS,6aS,12bR,14aS,14bR)-10-hydroxy-2,4-a,6a,9,12b,14a-hexamethyl-11-oxo-1,2,3,4,4a,5,6,6a,11,12b,13,14,14a,14b-tetradecahydropicen-2-yl)methyl)morpholine-4-carboxamide] registered an IC50 of 358 nM.
Compound `CC1=C(O)C(=O)C=C2C1=CC=C1[C@@]2(C)CC[C@@]2(C)[C@@H]3C[C@](C)(CO)CC[C@]3(C)CC[C@]12C` [(6bS,8aS,11R,12aR,12bS,14aR)-3-hydroxy-11-(hydroxymethyl)-4,6b,8a,11,12b,14a-hexamethyl-7,8,8a,9,10,11,12,12a,12b,13,14,14a-dodecahydropicen-2(6bH)-one] gave an IC50 of 624 nM.
On the same count and under the same terms, the result for `CC1=C(O)C(=O)C=C2C1=CC=C1[C@@]2(C)CC[C@@]2(C)[C@@H]3C[C@](C)(CNC(=O)N4CCN(C)CC4)CC[C@]3(C)CC[C@]12C` [N-(((2R,4aS,6aS,12bR,14aS,14bR)-10-hydroxy-2,4-a,6a,9,12b,14a-hexamethyl-11-oxo-1,2,3,4,4a,5,6,6a,11,12b,13,14,14a,14b-tetradecahydropicen-2-yl)methyl)-4-methylpiperazine-1-carboxamide] reads 246 nM; that for `CC1=C(O)C(=O)C=C2C1=CC=C1[C@@]2(C)CC[C@@]2(C)[C@@H]3C[C@](C)(CNC(N)=O)CC[C@]3(C)CC[C@]12C` [1-(((2R,4aS,6aS,12bR,14aS,14bR)-10-hydroxy-2,4-a,6a,9,12b,14a-hexamethyl-11-oxo-1,2,3,4,4a, 5,6,6a,11,12b,13,14,14a,14b-tetradecahydropicen-2-yl)methyl)urea], 737 nM.

The test system of a further assay is nitric oxide production.
Assay: not given
The conditions noted are these: Jin et al., J Nat Prod 65: 89 (2002); read-out: IC50, inhibition of nitric oxide production; cited from earlier work.
Turning to `N=C(N)NN` [aminoguanidine], the IC50 was 16000 nM.
